Reference: ChEMBL document CHEMBL1127423, “An evaluation of the antirhinoviral activity of acetylfuran replacements for 3-methylisoxazoles. Are 2-acetylfurans bioisosteres for 3-methylisoxazoles?” (J Med Chem, 1994)
In brackets after ≈: the same amount, converted by molar mass. Activity calls are given as the source filed them. The calls are words filed in the database; no cut-off is given here.

How the values were obtained:
Human rhinovirus sp. [1] = test: tested for minimal inhibitory concentration against Human rhinovirus serotype 15 by plaque reduction assay; format: functional
Human rhinovirus sp. [2] = test: tested for minimal inhibitory concentration against Human rhinovirus serotype 67 by plaque reduction assay; format: functional
Human rhinovirus sp. [3] = test: Tested for in vitro antiviral activity against Human rhinovirus (HRV)-14; format: functional
Human rhinovirus sp. [4] = test: tested for minimal inhibitory concentration against Human rhinovirus serotype 89 by plaque reduction assay; format: functional
Human rhinovirus sp. [5] = test: tested for minimal inhibitory concentration against Human rhinovirus serotype 14 by plaque reduction assay; format: functional
Human rhinovirus sp. [6] = test: tested for minimal inhibitory concentration against Human rhinovirus serotype 41 by plaque reduction assay; format: functional
Human rhinovirus sp. [7] = test: tested for minimal inhibitory concentration against Human rhinovirus serotype 50 by plaque reduction assay; format: functional
Human rhinovirus sp. [8] = test: tested for minimal inhibitory concentration against Human rhinovirus serotype 6 by plaque reduction assay; format: functional
Human rhinovirus sp. [9] = test: tested for minimal inhibitory concentration against Human rhinovirus serotype 21 by plaque reduction assay; format: functional
Human rhinovirus sp. [10] = test: tested for minimal inhibitory concentration against Human rhinovirus serotype 22 by plaque reduction assay; format: functional
Human rhinovirus sp. [11] = test: tested for minimal inhibitory concentration against Human rhinovirus serotype 25 by plaque reduction assay; format: functional
Human rhinovirus sp. [12] = test: tested for minimal inhibitory concentration against Human rhinovirus serotype 30 by plaque reduction assay; format: functional
Human rhinovirus sp. [13] = test: tested for minimal inhibitory concentration against Human rhinovirus serotype 1A by plaque reduction assay; format: functional
Human rhinovirus sp. [14] = test: tested for minimal inhibitory concentration against Human rhinovirus serotype 2 by plaque reduction assay; format: functional
Human rhinovirus sp. [15] = test: tested for minimal inhibitory concentration against Human rhinovirus serotype 1B by plaque reduction assay; format: functional
Human rhinovirus sp. [16] = test: tested for minimal inhibitory concentration against Human rhinovirus serotype 86 by plaque reduction assay; format: functional
Human rhinovirus sp. [17] = test: Antirhinoviral activity calculated for mean of fifteen serotypes (HRV-1A, -1B, -2, -6, -14, -15, -21, -22, -25, -30, -41, --50, -67, -86, -89); format: functional
Human rhinovirus sp. [18] = test: Compound was tested in vitro for minimal inhibitory constant against 80% of fifteen human rhinovirus serotypes
[19] = Partition coefficient (logP) (HPLC); format: physicochemical; details: octanol/water
Human rhinovirus sp. [20] = test: Compound was tested in vitro for minimal inhibitory constant against HRV-14; inactive against HRV-1A, -6, -14,-67; format: functional, organism-based
Human rhinovirus sp. [21] = test: Antirhinoviral activity calculated for mean of fifteen serotypes (HRV-1A, -1B, -2, -6, -14, -15, -21, -22, -25, -30, -41, --50, -67, -86, -89); inactive against HRV-1A, -6, -14,-67; format: functional, organism-based
Human rhinovirus sp. [22] = test: Tested for in vitro antiviral activity against Human rhinovirus (HRV)-14; inactive against HRV-1A, -6, -14,-67; format: functional, organism-based
Human rhinovirus sp. [23] = test: Antirhinoviral activity calculated for mean of fifteen serotypes (HRV-1A, -1B, -2, -6, -14, -15, -21, -22, -25, -30, -41, --50, -67, -86, -89); inactive against HRV-6,-41,-67,-86; format: functional, organism-based
Human rhinovirus sp. [24] = test: Compound was tested in vitro for minimal inhibitory constant against HRV-14; high capacity tissue culture infectious dose; format: functional, organism-based
Human rhinovirus sp. [25] = test: Tested for minimal inhibitory concentration against Human rhinovirus serotype 15 by plaque reduction assay; format: functional
Human rhinovirus sp. [26] = test: Tested for minimal inhibitory concentration against Human rhinovirus serotype 67 by plaque reduction assay; format: functional
Human rhinovirus sp. [27] = test: Tested for minimal inhibitory concentration against Human rhinovirus serotype 86 by plaque reduction assay; format: functional
Human rhinovirus sp. [28] = test: Tested for minimal inhibitory concentration against Human rhinovirus serotype 89 by plaque reduction assay; format: functional
Human rhinovirus sp. [29] = test: Tested for minimal inhibitory concentration against Human rhinovirus serotype 41 by plaque reduction assay; inactive; format: functional, organism-based
Human rhinovirus sp. [30] = test: Tested for minimal inhibitory concentration against Human rhinovirus serotype 50 by plaque reduction assay; format: functional
Human rhinovirus sp. [31] = test: Tested for minimal inhibitory concentration against Human rhinovirus serotype 6 by plaque reduction assay; format: functional
Human rhinovirus sp. [32] = test: Tested for minimal inhibitory concentration against Human rhinovirus serotype 14 by plaque reduction assay; format: functional
Human rhinovirus sp. [33] = test: Tested for minimal inhibitory concentration against Human rhinovirus serotype 21 by plaque reduction assay; format: functional
Human rhinovirus sp. [34] = test: Tested for minimal inhibitory concentration against Human rhinovirus serotype 22 by plaque reduction assay; format: functional
Human rhinovirus sp. [35] = test: Tested for minimal inhibitory concentration against Human rhinovirus serotype 25 by plaque reduction assay; inactive; format: functional, organism-based
Human rhinovirus sp. [36] = test: Tested for minimal inhibitory concentration against Human rhinovirus serotype 1A by plaque reduction assay; format: functional
Human rhinovirus sp. [37] = test: Tested for minimal inhibitory concentration against Human rhinovirus serotype 1B by plaque reduction assay; inactive; format: functional, organism-based
Human rhinovirus sp. [38] = test: Tested for minimal inhibitory concentration against Human rhinovirus serotype 2 by plaque reduction assay; format: functional
Human rhinovirus sp. [39] = test: Tested for minimal inhibitory concentration against Human rhinovirus serotype 30 by plaque reduction assay; format: functional
Human rhinovirus sp. [40] = test: Compound was tested in vitro for minimal inhibitory constant against HRV-14; IA= Inactive; format: functional, organism-based
Human rhinovirus sp. [41] = test: tested for in vitro antiviral activity against Human rhinovirus (HRV)-14; format: functional

SMILES	Activity (Human rhinovirus sp. [3]) [µM]	Activity (Human rhinovirus sp. [17]) [µM]	MIC80 (Human rhinovirus sp. [18]) [µM]	logP [19]	further results
CC(=O)c1ccc(CCCCCOc2ccc(C3=NCCO3)cc2)o1	1.1	0.9	1 (≈ 0.341 µg/mL)		MIC (Human rhinovirus sp. [1]): 0.7 µM (≈ 0.239 µg/mL); MIC (Human rhinovirus sp. [2]): 1 µM (≈ 0.341 µg/mL); MIC (Human rhinovirus sp. [4]): 0.05 µM (≈ 0.0171 µg/mL); MIC (Human rhinovirus sp. [5]): 1 µM (≈ 0.341 µg/mL); MIC (Human rhinovirus sp. [6]): 2.2 µM (≈ 0.751 µg/mL); MIC (Human rhinovirus sp. [7]): 0.2 µM (≈ 0.0683 µg/mL); MIC (Human rhinovirus sp. [8]): 0.3 µM (≈ 0.102 µg/mL); MIC (Human rhinovirus sp. [9]): 0.4 µM (≈ 0.137 µg/mL); MIC (Human rhinovirus sp. [10]): 1.6 µM (≈ 0.546 µg/mL); MIC (Human rhinovirus sp. [11]): 4.5 µM (≈ 1.54 µg/mL); MIC (Human rhinovirus sp. [12]): 0.1 µM (≈ 0.0341 µg/mL); MIC (Human rhinovirus sp. [13]): 0.2 µM (≈ 0.0683 µg/mL); MIC (Human rhinovirus sp. [14]): 0.5 µM (≈ 0.171 µg/mL); MIC (Human rhinovirus sp. [15]): 0.3 µM (≈ 0.102 µg/mL); MIC (Human rhinovirus sp. [16]): 0.4 µM (≈ 0.137 µg/mL)
CC(=O)c1ccc(CCCCCOc2c(Cl)cc(C3=NCCO3)cc2Cl)o1	2	0.5	0.7 (≈ 0.287 µg/mL)	4.6	
Cc1ccc(CCCOc2c(C)cc(-c3noc(C)n3)cc2C)o1					Activity (Human rhinovirus sp. [20]): inactive; Activity (Human rhinovirus sp. [21]): inactive; Activity (Human rhinovirus sp. [22]): inactive
Cc1cc(CCCOc2c(C)cc(-c3noc(C)n3)cc2C)on1	0.2	0.1	0.2 (≈ 0.0655 µg/mL)		
Cc1cc(CCCCCOc2c(Br)cc(C3=NCCO3)cc2Br)on1	2	0.6	1.4 (≈ 0.661 µg/mL)		
Cc1cc(CCCOc2c(C)cc(-c3nnn(C)n3)cc2C)on1	1.7	0.5	0.4 (≈ 0.131 µg/mL)	3.2	
CC(=O)c1ccc(CCCOc2c(C)cc(-c3nnn(C)n3)cc2C)o1	0.5	0.3	0.5 (≈ 0.177 µg/mL)	3.2	
Cc1cc(CCCCCOc2c(C)cc(-c3nnn(C)n3)cc2C)on1	0.8	0.5	0.6 (≈ 0.213 µg/mL)	3.6	
Cc1ccc(CCCOc2c(C)cc(-c3nnn(C)n3)cc2C)o1	30				Activity (Human rhinovirus sp. [23]): inactive; MIC80 (Human rhinovirus sp. [24]): high capacity tissue culture infectious dose
CC(=O)c1ccc(CCCCCOc2c(C)cc(-c3nnn(C)n3)cc2C)o1	1.2	0.6	0.8 (≈ 0.306 µg/mL)	3.7	
Cc1cc(CCCCCOc2c(Cl)cc(C3=NCCO3)cc2Cl)on1 [WIN-54954]	2.3	0.7	0.9 (≈ 0.345 µg/mL)	4.6	
Cc1cc(CCCCCOc2ccc(C3=NCCO3)cc2)on1	0.7		7 (≈ 2.2 µg/mL)		MIC (Human rhinovirus sp. [25]): 1.5 µM (≈ 0.472 µg/mL); MIC (Human rhinovirus sp. [26]): 2.4 µM (≈ 0.755 µg/mL); MIC (Human rhinovirus sp. [27]): 0.1 µM (≈ 0.0314 µg/mL); Activity (Human rhinovirus sp. [21]): inactive; MIC (Human rhinovirus sp. [28]): 0.4 µM (≈ 0.126 µg/mL); MIC (Human rhinovirus sp. [29]): inactive; MIC (Human rhinovirus sp. [30]): 1.5 µM (≈ 0.472 µg/mL); MIC (Human rhinovirus sp. [31]): 0.06 µM (≈ 0.0189 µg/mL); MIC (Human rhinovirus sp. [32]): 0.7 µM (≈ 0.22 µg/mL); MIC (Human rhinovirus sp. [33]): 1.2 µM (≈ 0.377 µg/mL); MIC (Human rhinovirus sp. [34]): 0.9 µM (≈ 0.283 µg/mL); MIC (Human rhinovirus sp. [35]): inactive; MIC (Human rhinovirus sp. [36]): 7 µM (≈ 2.2 µg/mL); MIC (Human rhinovirus sp. [37]): inactive; MIC (Human rhinovirus sp. [38]): 1.1 µM (≈ 0.346 µg/mL); MIC (Human rhinovirus sp. [39]): 0.3 µM (≈ 0.0943 µg/mL)
CC(=O)c1ccc(CCCCCOc2c(Br)cc(C3=NCCO3)cc2Br)o1	3.3	0.7	0.9 (≈ 0.449 µg/mL)		
Cc1cc(-c2nnn(C)n2)cc(C)c1OCCCCCc1ccc(C=O)o1				3.5	Activity (Human rhinovirus sp. [21]): inactive; MIC80 (Human rhinovirus sp. [40]): inactive; Activity (Human rhinovirus sp. [41]): 27 µM
CC(=O)c1ccc(CCCOc2c(C)cc(-c3noc(C)n3)cc2C)o1	0.5	0.2	0.4 (≈ 0.142 µg/mL)		
